#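 Five compound concentrations were applied to cells in 96-well plates for 48 hours; endpoints were derived by simple linear interpolation of the resulting dose-response curve. GI50 marks 50% less growth.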 Calls of active or inactive are those of the source. Cut-off read from the data, not from the text of the source: active = GI50 up to about 1.1 µM and inactive = higher. Where a SMILES comes first, the peptide text is derived from it. The star is where a group is joined. ONb = O=[N+]([O-])c1ccc(CO*)cc1; Boc = CC(C)(C)OC(=O)*
# How the values were obtained:
# Experiment in all cases: inhibition of tumour cell growth, NCI panel, 48 h
# HCT-15 = system: HCT-15
# MDA-MB-435 = system: MDA-MB-435
# MCF7 = system: MCF7
# CAKI-1 = system: CAKI-1
# MOLT-4 = system: MOLT-4
# MDA-N = system: MDA-N
# KM12 = system: KM12
# U-251 = system: U-251
# LOX IMVI = system: LOX IMVI
# OVCAR-5 = system: OVCAR-5
# NCI-H226 = system: NCI-H226
# Malme-3M = system: Malme-3M
# ACHN = system: ACHN
# OVCAR-4 = system: OVCAR-4
# HCC 2998 = system: HCC 2998
# M14 = system: M14
# NCI-H460 = system: NCI-H460
# MDA-MB-231 = system: MDA-MB-231
# UACC-62 = system: UACC-62
# BT-549 = system: BT-549
Structure (SMILES),GI50 (HCT-15) [µM],GI50 (MDA-MB-435),GI50 (MCF7),GI50 (CAKI-1),GI50 (MOLT-4),GI50 (MDA-N),GI50 (KM12),GI50 (U-251),GI50 (LOX IMVI),GI50 (OVCAR-5),GI50 (NCI-H226),GI50 (Malme-3M),GI50 (ACHN),GI50 (OVCAR-4),GI50 (HCC 2998),GI50 (M14),GI50 (NCI-H460),GI50 (MDA-MB-231),GI50 (UACC-62),GI50 (BT-549)
COC(=O)c1ccccc1CC(Cc1ccc2c(c1)CCC2)C(=O)OC (centres undefined),> 100,66.1 µM (inactive),> 100 µM (inactive),> 100 µM (inactive),31.8 µM (inactive),62.4 µM (inactive),33.6 µM (inactive),> 100 µM (inactive),> 100 µM (inactive),> 100 µM (inactive),57.5 µM (inactive),33.3 µM (inactive),> 100 µM (inactive),> 100 µM (inactive),> 100 µM (inactive),> 100 µM (inactive),> 100 µM (inactive),> 100 µM (inactive),–,–
CCCCCCc1cc2cc(-c3cn4ccsc4n3)c(=O)oc2cc1O,> 90.4,–,99.5 µM (inactive),> 71.1 µM (inactive),> 100 µM (inactive),–,> 100 µM (inactive),45.6 µM (inactive),> 100 µM (inactive),> 100 µM (inactive),> 100 µM (inactive),–,> 100 µM (inactive),> 79.6 µM (inactive),> 100 µM (inactive),–,> 100 µM (inactive),> 75 µM (inactive),19.1 µM (inactive),> 100 µM (inactive)
O=[N+]([O-])c1ccc2nc(Nc3ccccc3)c(Nc3ccccc3)nc2c1,0.753,1.66 µM (inactive),–,0.802 µM (active),1.55 µM (inactive),0.553 µM (active),1.3 µM (inactive),0.512 µM (active),1.58 µM (inactive),2.64 µM (inactive),2.4 µM (inactive),1.84 µM (inactive),0.681 µM (active),2.87 µM (inactive),1.25 µM (inactive),–,0.42 µM (active),1.36 µM (inactive),1.02 µM (active),–
CC(C)CC(NC(=O)OC(C)(C)C)C(=O)NC(CCC(=O)OCc1ccc([N+](=O)[O-])cc1)C(=O)OCc1ccc([N+](=O)[O-])cc1 (stereo not drawn) (Boc-Leu-Glu(ONb)-ONb; configuration not given here),> 100,> 10 µM (inactive),> 10 µM (inactive),> 100 µM (inactive),13 µM (inactive),44.8 µM (inactive),–,27.6 µM (inactive),25.2 µM (inactive),> 100 µM (inactive),–,> 100 µM (inactive),46.6 µM (inactive),> 100 µM (inactive),23 µM (inactive),26.2 µM (inactive),22 µM (inactive),> 100 µM (inactive),28.4 µM (inactive),–
CC(C)CCC(=O)c1ccoc1 [PERILLAKETONE],> 100,> 100 µM (inactive),> 100 µM (inactive),> 100 µM (inactive),> 100 µM (inactive),> 100 µM (inactive),> 100 µM (inactive),> 100 µM (inactive),> 100 µM (inactive),> 100 µM (inactive),> 100 µM (inactive),> 100 µM (inactive),> 100 µM (inactive),> 100 µM (inactive),> 100 µM (inactive),> 100 µM (inactive),> 100 µM (inactive),> 100 µM (inactive),> 100 µM (inactive),–
NCCS(=O)(=O)O [TAURINE],> 100,> 100 µM (inactive),> 100 µM (inactive),> 100 µM (inactive),> 100 µM (inactive),> 100 µM (inactive),> 100 µM (inactive),> 100 µM (inactive),> 100 µM (inactive),> 100 µM (inactive),> 100 µM (inactive),> 100 µM (inactive),> 100 µM (inactive),–,> 100 µM (inactive),> 100 µM (inactive),> 100 µM (inactive),> 100 µM (inactive),–,–
